This is an account of results in patent US9125352B2, “Method for maturing and synchronizing conifer somatic embryos” (SweTree Technologies AB, priority 2010, dated 2015).

The subject of one assay is somatic embryo cultures. The assay is described as follows: Embryo culture in medium with plasmolytic or near plasmolytic concentration of sugar alcohol (general findings). It counts as cell-based. The following applies: plasmolytic or near plasmolytic concentration. An excerpt:
The invention is based on a serendipitous discovery. Gene transfer to spruce somatic embryos using a particle gun was experimented with, using a special medium originally designed for use with gene transfer for embryogenic cultures, containing 0.25, M myo-inositol. The resulting plasmolysis reduces damage during penetration by the gold particles, since it relaxes the tension in the cell membranes and minimizes tearing. By mistake, the somatic embryos were left in this medium for 12, days instead of returning them to the normal proliferation medium as intended. […] Consequently, the cells are first plasmolyzed and then gradually deplasmolyzed.

The test system of assay [1] is embryogenic cells, cell-line 06:28:05. Put plainly: Comparison of inositol with other sugar alcohols and with sucrose on solid DKM+ABA maturation medium (Example 3). It counts as cell-based, Norway spruce. The following applies: three weeks. From the text:
The action of 0.25, M inositol in improving somatic embryo quality is likely to be partly osmotic, partly nutritional, with cell signaling effects also involved. The inventors tested whether 0.25, M inositol could be replaced with 0.25, M of other sugar alcohols (mannitol and sorbitol) or 0.25, M extra sucrose by spreading 1.0, to 1.5, g fresh weight of embryogenic cells, cell-line 06:28:05, on each of six plates of solid DKM+ABA maturation medium for continued growth and development over four weeks, with one subculture after 2, weeks. The cells were then subcultured onto three plates each (1.0-1.5, g cells per plate) of medium containing in addition either a) 0.25, M inositol, or b) 0.125, M mannitol and 0.125, M sorbitol, or c) 0.25, M sucrose. Control cells continued on standard medium. After three weeks, embryos of good quality were transferred to germination medium, ten embryos per petri dish, as a rough quantitative estimate of quality.

Regarding `OC[C@@H](O)[C@@H](O)[C@H](O)[C@H](O)CO` [mannitol], the “effect on maturation in the embryo cultures” value in the assay with somatic embryo cultures is recorded as “induce synchronous maturation”.
Still for that read-out and setting: with `OC[C@@H](O)[C@@H](O)[C@H](O)[C@@H](O)CO` [sorbitol] the entry was “induce synchronous maturation”.
For the compound `OC[C@H]1O[C@@](CO)(O[C@H]2O[C@H](CO)[C@@H](O)[C@H](O)[C@H]2O)[C@@H](O)[C@@H]1O` [sucrose, reference compound], the “effect on embryo quality” value in assay [1] (0.25 M addition to DKM+ABA) is on record as “clearly detrimental effect”. Further, the “Plates with 10 high quality embryos” value in assay [1] (addition to standard medium: 0.25 M (or 0.125 M + 0.125 M), three plates of 1.0-1.5 g cells per treatment) stood at 0.
